Where two headings read alike, the source gives them in different places.
What was measured:
[1] = test system: human lung cancer cells H460; assay: MTT growth inhibition, H460 cells; format: cell-based; settings: NCI-H460, 72 h after treatment, read-out: Drug concentration (IC50) at which 50% cancer cells survived
Excerpt: (§1) Cell lines and cell culture: human lung cancer cells A549 and H460, human breast cancer cells MCF-7 and MDA-MB-231, human gastric cancer cells BGC-823, human prostate cancer cells PC-3, human chronic leukemia cells K562, human lymphoma cells U937, human liver cancer cells SMMC7721 and HepG2, human colon cancer cells HT29, human pancreatic cancer cells PANC-1 and BxPC3, human cervical cancer Hela cell lines, human brain tumor cells Daoy, human neuroma cells D54 and human oral epidermoid cancer cells KBV200 line with strong drug resistance, mouse melanoma cells B16, and highly metastatic Lewis lung cancer cell lines were purchased from American Type Culture Collection of the U.S. These cells were cultured with DMEM and RPMI-1640 culture solutions separately.
(§2) The procedure was as follows:
(§3) (1) 0.25% trypsin was used to digest cancer cells in a logarithmic growth phase to prepare a single-cell suspension, the concentration of cells was adjusted to 5×10^4/mL, and the adjusted suspension was inoculated into a 96-well culture plate with 100 μl per well;
(§4) (2) The culture plate was transferred into a 37° C. incubator with a saturated humidity and 5% of CO2 and cultured for 24 h; the compounds and the intermediates thereof obtained in embodiments 1-7 and the compound as represented by formula (IIIa) or the positive control anti-cancer drug with the concentration of 1-1000 μM/L were added to enable the final concentration to be 0.1-1500 μM/L. Control wells (only added with 200 μl of cell suspension) and drug-free blank control wells (containing the solvent of 0.01% DMSO) were set, each group included 8 wells, and the plate was placed into the 37° C. incubator with saturated humidity and 5% of CO2 for culturing;
(§5) (3) The 96-well plate was taken out at 48 h and 72 h after dosing, the original culture medium was carefully removed by suction, 100 μl of serum-free DMEM culture medium and 10 μl of MTT (5 mg/mL) solution were added in each well. The plate was continuously cultured for another 4 h and then the culture was terminated;
(§6) (4) The supernatant in the wells was carefully removed by suction, each well was added with 150 μl of DMSO and shaked at room temperature for 10-15 min to fully dissolve crystals.
(§7) (5) Colorimetric analysis: the wavelength was selected as 570 nm, the light absorbance (A value) of each well was determined on the microplate reader and the results were recorded; the experiment was repeated for three times;
(§8) (6) the experimental results were calculated according to the following formula: relative survival rate=(A value of each experimental group/A value of cell control group)×100%
(§9) Calculation of median-effect concentration (IC50, namely the drug concentration at which the inhibition rate is 50%, also known as half inhibitory concentration):
(§10) IC50 of the detected component was calculated by using a regression equation.

[2] = test system: human lung cancer cells A549; assay: MTT growth inhibition, A549 cells; format: cell-based; settings: 72 h after treatment, read-out: Drug concentration (IC50) at which 50% cancer cells survived
Excerpt: as §1, §2, §3, §4, §5, §6, §7, §8, §9, §10

[3] = test system: human liver cancer cells HepG2; assay: MTT growth inhibition, HepG2 cells; format: cell-based; settings: 72 h after treatment, read-out: Drug concentration (IC50) at which 50% cancer cells survived
Excerpt: as §1, §2, §3, §4, §5, §6, §7, §8, §9, §10

[4] = test system: human pancreatic cancer cells BxPC3; assay: MTT growth inhibition, BxPc3 cells; format: cell-based; settings: read-out: Drug concentration (IC50) at which 50% cancer cells survived
Excerpt: as §1, §2, §3, §4, §5, §6, §7, §8, §9, §10

[5] = test system: human oral epidermoid cancer cells KBV200; assay: MTT growth inhibition, KBV200 cells; format: cell-based; settings: 72 h after treatment, read-out: Drug concentration (IC50) at which 50% cancer cells survived
Excerpt: as §1, §2, §3, §4, §5, §6, §7, §8, §9, §10

[6] = test system: human brain tumor cells Daoy; assay: MTT growth inhibition, Daoy cells; format: cell-based; settings: Homo sapiens, 72 h after treatment, read-out: Drug concentration (IC50) at which 50% cancer cells survived
Excerpt: as §1, §2, §3, §4, §5, §6, §7, §8, §9, §10

[7] = test system: human lymphoma cells U937; assay: MTT growth inhibition, U937 cells; format: cell-based; settings: Homo sapiens, U-937, 72 h after treatment, read-out: Drug concentration (IC50) at which 50% cancer cells survived
Procedure: as §2, §5, §6, §7, §8, §10

[8] = test system: mouse melanoma cells B16; assay: MTT growth inhibition, B16 cells; format: cell-based; settings: Mus musculus, 72 h after treatment, read-out: Drug concentration (IC50) at which 50% cancer cells survived
Excerpt: as §1, §2, §3, §4, §5, §6, §7, §8, §9, §10

[9] = test system: highly metastatic Lewis lung cancer cell lines; assay: MTT growth inhibition, LLC cells; format: cell-based, mouse; settings: 72 h after treatment, read-out: Drug concentration (IC50) at which 50% cancer cells survived
Excerpt: as §1, §2, §3, §4, §5, §6, §7, §8, §9, §10

[10] = test system: human gastric cancer cells BGC-823; assay: MTT growth inhibition, BGC-823 cells; format: cell-based; settings: 72 h after treatment, read-out: Drug concentration (IC50) at which 50% cancer cells survived
Excerpt: as §1, §2, §3, §4, §5, §6, §7, §8, §9, §10

[11] = test system: human cervical cancer Hela cell lines; assay: MTT growth inhibition, Hela cells; format: cell-based; settings: Homo sapiens, 72 h after treatment, read-out: Drug concentration (IC50) at which 50% cancer cells survived
Excerpt: as §1, §2, §3, §4, §5, §6, §7, §8, §9, §10

[12] = test system: Caski human cervical cancer cells; assay: MTT growth inhibition, Caski cells; format: cell-based; settings: Ca-Ski, 72 h after treatment, read-out: Drug concentration (IC50) at which 50% cancer cells survived
[13] = test system: human colon cancer cells HT29; assay: MTT growth inhibition, HT29 cells; format: cell-based; settings: HT-29, 72 h after treatment, read-out: Drug concentration (IC50) at which 50% cancer cells survived
Excerpt: as §1, §2, §3, §4, §5, §6, §7, §8, §9, §10

[14] = test system: human breast cancer cells MDA-MB-231; assay: MTT growth inhibition, MDA-MB-231 cells; format: cell-based; settings: 72 h after treatment, read-out: Drug concentration (IC50) at which 50% cancer cells survived
Excerpt: as §1, §2, §3, §4, §5, §6, §7, §8, §9, §10

[15] = test system: human liver cancer cells SMMC7721; assay: MTT growth inhibition, SMMC7721 cells; format: cell-based; settings: SMMC-7721, S-7721 (SMMC7721), 72 h after treatment, read-out: Drug concentration (IC50) at which 50% cancer cells survived
Excerpt: as §1, §2, §3, §4, §5, §6, §7, §8, §9, §10

[16] = test system: human pancreatic cancer cells PANC-1; assay: MTT growth inhibition, PANC-1 cells; format: cell-based; settings: 72 h after treatment, read-out: Drug concentration (IC50) at which 50% cancer cells survived
Excerpt: as §1, §2, §3, §4, §5, §6, §7, §8, §9, §10

[17] = test system: human chronic leukemia cells K562; assay: MTT growth inhibition, K562 cells; format: cell-based; settings: 72 h after treatment, read-out: Drug concentration (IC50) at which 50% cancer cells survived
Excerpt: as §1, §2, §3, §4, §5, §6, §7, §8, §9, §10

[18] = test system: human prostate cancer cells PC-3; assay: MTT growth inhibition, PC-3 cells; format: cell-based; settings: 72 h after treatment, read-out: Drug concentration (IC50) at which 50% cancer cells survived
Excerpt: as §1, §2, §3, §4, §5, §6, §7, §8, §9, §10

[19] = test system: human neuroma cells D54; assay: MTT growth inhibition, D54 cells; format: cell-based; settings: Homo sapiens, 72 h after treatment, read-out: Drug concentration (IC50) at which 50% cancer cells survived
Excerpt: as §1, §2, §3, §4, §5, §6, §7, §8, §9, §10

[20] = test system: human breast cancer cells MCF-7; assay: MTT growth inhibition, MCF-7 cells; format: cell-based; settings: MCF7, 72 h after treatment, read-out: Drug concentration (IC50) at which 50% cancer cells survived
Excerpt: as §1, §2, §3, §4, §5, §6, §7, §8, §9, §10

[21] = Homo sapiens, BXPC-3, 72 h after treatment
[22] = Mus musculus, Lewis lung carcinoma

SMILES | IC50 [1] [µM] | IC50 [2] [µM] | IC50 [3] [µM] | IC50 [4, 21] [µM] | IC50 [5] [µM] | IC50 [6] [µM] | IC50 [7] [µM] | IC50 [8] [µM] | IC50 [9, 22] [µM] | IC50 [10] [µM] | IC50 [11] [µM] | IC50 [12] [µM] | IC50 [13] [µM] | IC50 [14] [µM] | IC50 [15] [µM] | IC50 [16] [µM] | IC50 [17] [µM] | IC50 [18] [µM] | IC50 [19] [µM] | IC50 [20] [µM] | other results
O=C(O)c1cc2cc([N+](=O)[O-])ccc2oc1=O [Compound IIIf, 6-nitrocoumarin-3-carboxylic acid] | 460 | 580 | 360 | 114 | 300 | 400 | 450 | 670 | 370 | 650 | 580 | 300 | 460 | 470 | 460 | 430 | 300 | 530 | 300 | 400 | –
O=C(O)c1cc2cc(Cl)cc(Cl)c2oc1=O [Compound IIIg, 6,8-dichloro-coumarin-3-carboxylic acid] | 400 | 330 | 420 | 300 | 300 | 350 | 350 | 500 | 250 | 380 | 260 | 250 | 480 | 460 | 490 | 430 | 420 | 310 | 300 | 410 | –
COc1cccc2c1C(=O)c1c(O)c3c(c(O)c1C2=O)C[C@@](O)(C(C)=O)C[C@@H]3O[C@H]1C[C@H](N)[C@H](O)[C@H](C)O1 [Daunorubicin, reference compound] | 63 | – | – | – | 1 | – | – | – | – | 68 | – | – | 63 | – | – | 55 | – | 51 | – | 58 | –
COc1cc([C@@H]2c3cc4c(cc3[C@@H](O[C@@H]3O[C@@H]5CO[C@@H](C)O[C@H]5[C@H](O)[C@H]3O)[C@H]3COC(=O)[C@H]23)OCO4)cc(OC)c1O [Etoposide, reference compound] | – | – | – | – | – | – | – | – | – | – | – | 89 | – | – | – | – | 85 | – | – | – | –
O=c1c(-c2ccc(O)cc2)coc2cc(O)cc(O)c12 [Genistein, reference compound] | – | – | – | – | – | – | – | – | – | 135 | – | – | – | – | – | – | – | – | – | – | –
O=C1OC(=O)[C@H]2[C@@H]1[C@@H]1CC[C@H]2O1 [Norcantharidin, reference compound] | – | – | – | – | – | – | – | – | – | – | – | – | – | – | – | – | – | – | – | – | IC50 ([4]; 72 h after treatment): 60 µM; IC50 [9]: 15 µM

Source: US9518038B2, “Condensation product of theanine derivative and carboxylic acid coumarin derivative, its intermediate, preparation method and use thereof” (SHANDONG YINGDONG YINGHAO BIOTECHNOLOGY, INC., priority 2012, dated 2016)
